Where two headings read alike, the source gives them in different places.
Legend:
[1] = test system: HCV replicon (5-2 Luc replicon-comprising cells); test: HCV replicon assay (luciferase reporter); assay type: cell-based, Hepatitis C virus; conditions: first symbol of the Replicon/Western cell, 5-2 Luc replicon cells, 24 hours with compound, read-out: Replicon (IC50, 50% reduction in luciferase emission)
Protocol: The inhibitory activity of certain exemplary compounds of the invention was confirmed using an HCV replicon assay. The HCV replicon can include such features as the HCV IRES, the HCV 3′ untranslated region, selected HCV genes encoding HCV polypeptides, selectable markers, and a reporter gene such as luciferase, GEP, etc. In the assay, actively dividing 5-2 Luc replicon-comprising cells were seeded at a density of between about 5,000 and 7,500 cells/well onto 96 well plates (about 90 μl of cells per well) and incubated at 37° C. and 5% CO2 for 24 hours. Then, the test compound (in a volume of about 10 μl) was added at various concentrations to each well and the cells were incubated for an additional 24 hours before luciferase assay. The cells were harvested, and HCV replication or translation was monitored via a reporter assay, e.g., a luciferase reporter assay. The media was aspirated from each cell and Bright-Glo ([…].) luciferase assay reagents were added to each well according to the manufacturer's instructions. In this assay, the amount of test compound that yielded a 50% reduction in luciferase emission (IC50) was determined.

[2] = cytotoxicity assay (Cell Titer Glo); assay type: cell-based; conditions: human; 48 hr with compound, ATP-dependent Cell Titer Glo; read-out: IC50 (cytotoxicity, number of viable cells)
Protocol: Compounds 1, 3, 7, 9, 11, 13, 17, 19, 21, 27, 29, 31, 33, 35, 37, 39, 47, 49, 51, 57 and 69 were tested in a cytotoxicity assay with liver cells including an HCV replicon (5-2 Luc cells, 9-13 cells or Huh-7 cells). In the assay, cells were seeded onto 96-well plates (approx. 7500 cells/well in a volume of 90 μl) and grown for 24 hr at 37° C. On day 2, various concentrations of test compound (in a volume of 10 μl) were added to the wells and the cells were grown for an additional 48 hr at 37° C. On day 4, an ATP-dependent R-Luciferase assay (Cell Titer Glo assay) was performed to determine the number of viable cells.

[3] = test system: HCV proteins (HCV replication); test: quantitative Western blot analysis with antibodies specific for certain HCV proteins; assay type: cell-based, Hepatitis C virus; conditions: second symbol of the Replicon/Western cell, read-out: Western (IC50, 50% reduction in the amount of the specified HCV protein)
Protocol: Certain exemplary compounds of the invention were also tested for their ability to inhibit HCV replication using a quantitative Western blot analysis with antibodies specific for certain HCV proteins. In this assay, the amount of test compound that yielded a 50% reduction in the amount of the specified HCV protein as compared to a control sample (IC50) was determined.

Row | Molecule | IC50 [1] [µM] | IC50 ([1]; Hepatitis C virus) [µM] | IC50 at 48 h [2] [µM] | other results
1 | 2,2-Dichloro-N-[5-[3-[2-chloro-6-[4-(N-2-pyridyl)pipera phenyl])5-isoxazolyl]-(3-pyridyl)] Acetamide [Compound 69] | < 10 | – | – | –
2 | 2,2-Dichloro-N-[5-[3-[2-chloro-6-[4-(N-acetyl)piperazino]phenyl])-5-isoxazoly]-(3-pyridyl)] Acetamide [Compound 61] | < 10 | – | – | –
3 | 2,2-Dichloro-N-[5-[3-[2-chloro-6-[4-(N-ethylcarboxamido)piperazino]phenyl])-5-isoxazolyl]-(3-pyridyl)] Acetamide [Compound 81] | < 10 | – | – | –
4 | 2,2-Dichloro-N-[5-[3-[2-chloro-6-[4-(N-tert-butoxycarbonyl)piperazino]phenyl])-5-isoxazolyl]-(3-pyridyl)] Acetamide [Compound 71] | < 10 | – | – | –
5 | O=C(Nc1ccnc(-c2cc(-c3c(F)cccc3Cl)no2)c1)C(Cl)Cl [Compound 1, 2,2-Dichloro-N-[2-[3-(2-chloro-6-fluorophenyl)-5-isoxazolyl]-(4-pyridyl)] Acetamide] | – | < 10 | ≥ 10 | –
6 | O=C(Nc1ccnc(-c2cc(-c3c(F)cccc3C(F)(F)F)no2)c1)C(Cl)Cl [Compound 3, 2,2-Dichloro-N-[2-[3-(2-fluoro-6-trifluoromethylphenyl)-5-isoxazolyl]-(4-pyridyl)] Acetamide] | – | < 10 | ≥ 10 | IC50 ([3]; Hepatitis C virus): < 10 µM
7 | COc1cccc(F)c1-c1cc(-c2cc(NC(=O)C(Cl)Cl)ccn2)on1 [Compound 5, 2,2-Dichloro-N-[2-[3-(2-fluoro-6-methoxyphenyl)-5-isoxazolyl]-(4-pyridyl)] Acetamide] | – | > 10 | – | IC50 ([3]; Hepatitis C virus): < 10 µM
8 | O=C(Nc1cncc(-c2cc(-c3c(Cl)cccc3Cl)no2)c1)C(Cl)Cl [Compound 7, 2,2-Dichloro-N-[5-[3-(2,6-dichlorophenyl)-5-isoxazolyl]-(3-pyridyl)] Acetamide] | – | < 10 | ≥ 10 | IC50 ([3]; Hepatitis C virus): < 10 µM
9 | O=C(Nc1cccc(-c2cc(-c3cc(Cl)nc(Cl)c3)no2)c1)C(Cl)Cl [Compound 11, 2,2-Dichloro-N-[3-[3-[(2,6-dichloro)-4-pyridyl]-5-isoxazolyl]phenyl] Acetamide] | > 10 | – | – | IC50 [3]: < 10 µM
10 | Cc1cccc(C)c1-c1cc(-c2cc(NC(=O)C(Cl)Cl)ccn2)on1 [Compound 19, 2,2-Dichloro-N-[2-[3-(2,6-dimethylphenyl)-5-isoxazolyl]-(4-pyridyl)] Acetamide] | – | < 10 | > 5 | –
11 | O=C(Nc1cncc(-c2cc(-c3cccc(Cl)c3Cl)no2)c1)C(Cl)Cl [Compound 29, 2,2-Dichloro-N-[5-[3-(2,3-dichloroplhenyl)-5-isoxazolyl]-(3-pyridyl)] Acetamide] | – | < 10 | ≥ 10 | –
12 | O=C(Nc1ccnc(-c2cc(-c3c(N4CCOCC4)cccc3C(F)(F)F)no2)c1)C(Cl)Cl [Compound 31, 2,2-Dichloro-N-[2-[3-(2-morpholino-6-trifluoromethylphenyl)-5-isoxazolyl]-(4-pyridyl)] Acetamide] | – | < 10 | ≥ 10 | –
13 | Cc1cccnc1-c1cc(-c2cccc(NC(=O)C(Cl)Cl)c2)on1 [Compound 33, 2,2-Dichloro-N-[3-[3-(3-methyl-2-pyridyl)-5-isoxazolyl]phenyl] Acetamide] | – | < 10 | ≥ 10 | –
14 | O=C(Nc1cccc(-c2cc(-c3c(Cl)cccc3Cl)no2)n1)C(Cl)Cl [Compound 35, 2,2-Dichloro-N[6-[3-(2,6-dichlorophenyl)-5-isoxazolyl]-(2-pyridyl)] Acetamide] | – | > 10 | ≥ 10 | –
15 | O=C(Nc1cncc(-c2cc(-c3c(F)cccc3C(F)(F)F)no2)c1)C(Cl)Cl [Compound 37, 2,2-Dichloro-N-[5-[3-(2-fluoro-6-trifluoromethylphenyl)-5-isoxazolyl]-(3-pyridyl)] Acetamide] | – | > 10 | ≥ 10 | –
16 | COc1cccc(F)c1-c1cc(-c2cc(NC(=O)C(Cl)Cl)ccn2)on1 [Compound 39] | – | – | ≥ 10 | –
17 | O=C(Nc1cc[n+]([O-])c(-c2cc(-c3c(Cl)cccc3Cl)no2)c1)C(Cl)Cl [Compound 43] | – | > 10 | – | –
18 | CCOC(=O)c1cccnc1-c1cc(-c2cccc(NC(=O)C(Cl)Cl)c2)on1 [Compound 45, 2,2-Dichloro-N-[3-[3-[(3-ethoxycarbonyl)-2-pyridyl]-5-isoxazolyl]phenyl] Acetamide] | – | > 10 | – | –

Row | Molecule | IC50 [1] [µM] | IC50 ([1]; Hepatitis C virus) [µM] | IC50 at 48 h [2] [µM] | other results
19 | O=C(Nc1ccnc(-c2cc(-c3c(F)cccc3S(=O)(=O)NN3CCOCC3)no2)c1)C(Cl)Cl [Compound 47] | < 10 | – | – | –
20 | CN(C(=O)C(Cl)Cl)c1ccnc(-c2cc(-c3c(Cl)cccc3Cl)no2)c1 [Compound 51, 2,2-Dichloro-N-[2-[3-(2,6-dichlorophenyl)-5-isoxazolyl]-(4-pyridyl)]-N-methyl Acetamide] | – | < 10 | ≥ 10 | –
21 | O=C(Nc1ccnc(-c2cc(-c3c(Cl)cccc3N3CCN(c4ccccn4)CC3)no2)c1)C(Cl)Cl [Compound 53] | – | < 10 | – | IC50 ([3]; Hepatitis C virus): < 10 µM
22 | CCN1CCN(c2cccc(Cl)c2-c2cc(-c3cncc(NC(=O)C(Cl)Cl)c3)on2)CC1 [Compound 63] | – | < 10 | – | –
23 | O=C(Nc1ccc(-c2cc(-c3c(Cl)cccc3Cl)no2)cn1)C(Cl)Cl [Compound 65, 2,2-Dichloro-N-[5-[3-(2,6-dichlorophenyl)-5-isoxazolyl]-(2-pyridyl)] Acetamide] | > 10 | – | – | –
24 | O=C(Nc1cncc(-c2cc(-c3ccccc3C(F)(F)F)no2)c1)C(Cl)Cl [Compound 67, 2,2-Dichloro-N-[5-[3-(2-trifluoromethylphenyl)-5-isoxazolyl]-(3-pyridyl)] Acetamide] | > 10 | – | – | –
25 | O=C(Nc1cncc(-c2cc(-c3c(Cl)cccc3N3CCNCC3)no2)c1)C(Cl)Cl [Compound 73, 2,2-Dichloro-N-[5-[.3-(2-chloro-6-piperazinophenyl)-5-isoxazolyl]-(3-pyridyl)] Acetamide] | < 10 | – | – | –
26 | CC(C)(C)[Si](C)(C)Oc1cccc(Cl)c1-c1cc(-c2cncc(NC(=O)C(Cl)Cl)c2)on1 [Compound 75, 2,2-Dichloro-N-[5-[3-(2-chloro-6-tert-butyldimethylsilyloxyphenyl)-5-isoxazolyl]-(3-pyridyl)] Acetamide] | < 10 | – | – | –
27 | O=C(Nc1cncc(-c2cc(-c3c(O)cccc3Cl)no2)c1)C(Cl)Cl [Compound 77, 2,2-Dichloro-N-[5-[3-(2-chloro-6-hydroxyphenyl)-5-isoxazolyl]-(3-pyridyl)] Acetamide] | < 10 | – | – | –
28 | CCNC(=O)Oc1cccc(Cl)c1-c1cc(-c2cncc(NC(=O)C(Cl)Cl)c2)on1 [Compound 79, 2,2-Dichloro-N-[5-[3-(2-chloro-6-N-ethylcarbamoyloxyphenyl)-5-isoxazolyl]-(3-pyridyl)] Acetamide] | < 10 | – | – | –
29 | CC(C)(C)[Si](C)(C)Oc1cccc(Cl)c1-c1cc(-c2cc(NC(=O)C(Cl)Cl)ccn2)on1 [Compound 83, 2,2-Dichloro-N-[2-[3-(2-chloro-6-tert-butyldimethylsilyloxyphenyl)-5-isoxazolyl]-(4-pyridyl)] Acetamide] | < 10 | – | – | –
30 | CCCNC(=O)Oc1cccc(Cl)c1-c1cc(-c2cc(NC(=O)C(Cl)Cl)ccn2)on1 [Compound 85] | < 10 | – | – | –
31 | COCOc1cccc(Cl)c1-c1cc(-c2cc(NC(=O)C(Cl)Cl)ccn2)on1 [Compound 87] | < 10 | – | – | –
32 | O=C(Nc1ccnc(-c2cc(-c3c(O)cccc3Cl)no2)c1)C(Cl)Cl [Compound 89, 2,2-Dichloro-N-[2-[3-(2-chloro-6-hydioxyphenyl)-5-isoxazolyl]-(4-pyridyl)] Acetamide] | < 10 | – | – | –
33 | CN(C)c1nccc(Cl)c1-c1cc(-c2cccc(NC(=O)C(Cl)Cl)c2)on1 [Compound 91, 2,2-Dichloro-N-[3-[3-[(4-chloro-2-dimethylamino)-3-pyridyl]-5-isoxazolyl]phenyl] Acetamide] | < 10 | – | – | –
34 | O=C(Nc1cccc(-c2cc(-c3c(Cl)ccnc3Cl)no2)c1)C(Cl)Cl [Compound 93, 2,2-Dichloro-N-[3-[3-[(2,4-dichloro)-3-pyridy]-5-isoxazolyl]phenyl] Acetamide] | < 10 | – | – | –
35 | O=C(Nc1ccncc1-c1cc(-c2cccc(Br)n2)no1)C(Cl)Cl [Compound 97, 2,2-Dichloro-N-[3-[3-[(6-bromo)-2-pyridyl]-5-isoxazolyl]-(4-pyridyl)] Acetamide] | > 10 | – | – | –
